Columns and labels:
serotonin (5-HT) = serotonin (5-HT) (Cavia porcellus, UniProt A0A286Y537); experiment: Anti-serotonin (5-HT) action (contraction of guinea pig superior mesenteric artery induced by serotonin); type: cell-based, Hartley male guinea pig; settings: contraction induced by 10^-5 M 5-HT = 100%, helical superior mesenteric artery preparation, Tyrode solution, 37° C; for remaining activity at 1 µM: test drug 10^-6 M, read-out: Anti 5-HT action (% of Control), 10^-6 M; for remaining activity at 0.1 µM: test drug 10^-7 M, read-out: Anti 5-HT action (% of Control), 10^-7 M
Description: (§1) With respect to the compounds of the present invention, their anti-α1 action and anti-serotonin (5-HT) action were investigated by the methods which will be described below.
(2) Anti-serotonin (5-HT) action
A preparation cut in a helical form was suspended under restomg tension of 0.3 g in a Magnus cylinder filled with the Tyrode solution which had been aerated with a gas mixture of 95% O2 and 5% CO2 and maintained at 37° C. Using an isometric transducer ("UL-10", manufactured by SHINKOH K.K.) and a pressure preamplifier ("DSA-605A", manufactured by SHINKOH K.K.), variations in tension were measured. The isometric tensions were recorded on a pen-writing recorder ("VP-6537A", manufactured by NATIONAL K.K.). Taking the contraction induced by 10^-5 M serotonin (5-HT) as 100%, the percent contractions by 10^-5 M 5-HT in the presence of each test drug at 10^-8 M, 10^-7 M and 10^-6 M were determined as anti-5-HT action.

α1 = experiment: Anti-α1 action (contraction of guinea pig thoracic aorta induced by norepinephrine); type: cell-based, Hartley male guinea pig; settings: tonic contraction induced by 10^-5 M norepinephrine = 100%, helical thoracic aorta preparation, Tyrode solution, 37° C; for Anti α1 action (% of Control), 10^-7 M: test drug 10^-7 M, 0.1 µM; for Anti α1 action (% of Control), 10^-8 M: test drug 10^-8 M, 0.01 µM
Description: as §1
The thoracic aorta of each Hartley male guinea pig (body weight: 300-500 g) was excised. A preparation cut in a helical form was suspended under 1 g load in a Magnus cylinder filled with the Tyrode solution which had been aerated with a gas mixture of 95% O2 and 5% CO2 and maintained at 37° C. Using an isometric transducer ("TB-612J", manufactured by Nihon Kohden Corporation) and a pressure preamplifier ("AP-620G", manufactured by Nihon Kohden Corporation), variations in tension were measured. The isometric tensions were recorded on a thermal pen-writing recorder ("WT-647G", manufactured by Nihon Kohden Corporation). Taking the tonic contraction induced by 10^-5 M norepinephrine (NE) as 100%, the percent contractions upon addition of each test drug at 10^-8 M and 10^-7 M were determined as anti-α1 action.

Chain of serotonin (5-HT) (A0A286Y537 1-470): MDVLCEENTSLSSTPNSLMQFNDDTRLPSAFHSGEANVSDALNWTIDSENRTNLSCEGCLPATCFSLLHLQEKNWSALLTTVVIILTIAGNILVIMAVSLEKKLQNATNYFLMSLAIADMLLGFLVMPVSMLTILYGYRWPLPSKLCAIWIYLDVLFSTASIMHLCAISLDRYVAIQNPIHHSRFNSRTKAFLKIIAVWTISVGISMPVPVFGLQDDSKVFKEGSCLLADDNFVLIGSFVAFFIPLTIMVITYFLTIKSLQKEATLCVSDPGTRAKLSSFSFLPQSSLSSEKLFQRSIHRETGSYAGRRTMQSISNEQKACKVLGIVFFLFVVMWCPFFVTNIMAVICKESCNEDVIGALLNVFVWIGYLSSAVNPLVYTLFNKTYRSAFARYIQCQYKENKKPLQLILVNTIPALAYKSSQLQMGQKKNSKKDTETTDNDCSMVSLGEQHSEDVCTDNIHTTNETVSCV

Row | Structure (SMILES) | remaining activity at 1 µM (serotonin (5-HT)) [%] | remaining activity at 0.1 µM (serotonin (5-HT)) [%] | Anti α1 action (% of Control), 10^-7 M (α1) | Anti α1 action (% of Control), 10^-8 M (α1) | remaining activity at 0.01 µM (serotonin (5-HT); test drug 10^-8 M, read-out: Anti 5-HT action (% of Control), 10^-8 M) [%]
1 | CN1CCC(=O)c2c(ccn2CCCCN2CCC(C(=O)c3ccc(F)cc3)CC2)C1=O [Compound No. 15, 1-[4-[4-(4-fluorobenzoyl)piperidino]-butyl]-5-methyl-1,4,5,6,7,8-hexahydropyrrolo[3,2-c]azepine-4,8-dione] | 26.6 | 75.3 | 35.4 % of Control | 59.9 % of Control | –
2 | CN1CCC(=O)c2c(ccn2CCCCN2CCC(c3noc4cc(F)ccc34)CC2)C1=O [Compound No. 17, 1-[4-[4-(6-fluoro-1,2-benzisoxazol-3-yl)piperidino]butyl]-5-methyl-1,4,5,6,7,8-hexahydropyrrolo[3,2-c]azepine-4,8-dione] | 8.9 | 55.2 | 14.0 % of Control | 27.8 % of Control | 80.7
3 | CN1CCC(=O)c2cn(CCCCN3CCC(C(=O)c4ccc(F)cc4)CC3)cc2C1=O [Compound No. 18, 2-[4-[4-(4-fluorobenzoyl)piperidino]-butyl]-5-methyl-2,4,5,6,7,8-hexahydropyrrolo[3,4-c]azepine-4,8-dione] | 25.3 | 81.7 | 37.3 % of Control | 76.0 % of Control | –
4 | CN1CCC(=NO)c2cn(CCCCN3CCC(C(=O)c4ccc(F)cc4)CC3)cc2C1=O [Compound No. 21, 2-[4-[4-(4-fluorobenzoyl)piperidino]-butyl]-8-hydroxyimino-5-methyl-2,4,5,6,7,8-hexahydropyrrolo[3,4-c]azepin-4-one] | 24.9 | 85.5 | 36.9 % of Control | 69.7 % of Control | –

Source: patent publication US6187772A, “Pyrroloazepine compounds” (Suntory Limited, priority 1997, dated 2001)
